The nature of data set [1]: Surface tension measurements (du Noüy ring), CMC determination. It counts as physicochemical. The conditions noted are these: du Noüy ring tensiometry, 10 mM Hepes buffer pH 7.4, 25 °C, metal ions 0.1 mM where present, triplicate. Here is the method: For the pure surfactin in the Hepes buffer without divalent counterions, the critical micelle concentration (CMC) value was 0.045 mM. Regarding the effect of divalent cations, Ca^2+ decreased the CMC value of surfactin-C15 more than the other cations. Compared with the surfactin-C15 solution without metal ions, the CMC of Ca^2+-surfactin decreased from 0.045 mM to 0.017 mM. The addition of 0.1 mM of Cu^2+, Mg^2+ and Zn^2+ to surfactin-C15 reduced the CMCs to 0.033 mM, 0.036 mM and 0.038 mM, respectively. All the tested metal ions led to reductions of the surface tension of surfactin-C15 at the CMC (γcmc), being the highest reductions obtained with Cu^2+ and Ca^2+ (from 28.4 mN·m^−1 up to 24.5 and 25.1 mN·m^−1, respectively). The peptide ring of surfactin adopts a “horsesaddle” structure in solution, with the two charged residues forming a “claw”, which is a potential binding site for divalent cations.
Figure 3 Surface tension profiles of surfactin and metal-surfactin complexes in Hepes buffer (pH 7.4) at 25 °C. The values represent the mean of triplicates ± SD.
The surface tension (γ) measurements were performed at room temperature (25 °C) according to the du Noüy’s ring method using a KRÜSS K20 Tensiometer (KRÜSS GmbH, Hamburg, Germany). […] The surface tension data were analyzed using the Origin software provided with the equipment to obtain the CMC values.

Data set [2] is described as follows: Micelle size by dynamic light scattering (DLS). It counts as physicochemical. The settings on record: 10 mM Hepes pH 7.4, 25 °C. The text has this:
For example, it is known that the addition of metal ions decreases the CMC of surfactin. This is probably related with two important competing forces during the micellization process. Electrostatic interactions, which are responsible for the repulsion of hydrophilic groups of the lipopeptide inhibit the formation of micelles. On the other hand, hydrophobic interactions are responsible for initiation of micellization through exclusion of fatty acid chains from the aqueous environment. The presence of divalent cations additionally supports the self-assembly process. […] In the case of the Cu^2+-surfactin system, Vmic^PM6 is twice lower than in the case of the free lipopeptide. Such big differences influence the aggregation number. Generally, Nagg decreases after binding of cations. The experimental micelle volumes and hydrodynamic radii with their theoretically calculated counterparts and aggregation numbers are shown in Table 1. The experimental (RH^DLS) and theoretically calculated (RH^PM6) hydrodynamic radii of surfactin-C15 were 2.46 nm and 2.40 nm, respectively. Addition of Cu^2+, Zn^2+, Mg^2+ and Ca^2+ reduces the size of the microstructures. In this study, we observed the largest modifications of surfactin-C15 conformation due to the binding of Cu^2+; in that case RH^DLS and RH^PM6 were 1.82 nm and 1.80 nm, respectively. […]

The target of data set [3] is bovine serum albumin (BSA) (Bos taurus, UniProt P02769). The experiment in a line: Fluorescence quenching of BSA (Stern-Volmer, binding constant, Van't Hoff). The conditions noted are these: for kq, biomolecular quenching rate constant / KSV, Stern-Volmer quenching constant: BSA 15 µM; for kq, biomolecular quenching rate constant: from KSV with τ0 about 5 ns; for KSV, Stern-Volmer quenching constant: excitation 280 nm; for ΔG of binding to BSA: ΔG=ΔH−TΔS. The text has this: Fluorescence spectroscopy is a valuable tool for studying ligand-protein interactions. BSA contains two tryptophan residues, Trp134 and Trp213, which are located in sub-domain IB and sub-domain IIA, respectively. The maximum emission wavelength of BSA was found at 348 nm, and the intensity decreased regularly upon increasing the concentration of surfactin and metal-surfactin complexes. This interaction takes place adjacent to the Trp in BSA and changes the polarity around the fluorophore. This phenomenon is ascribed to the formation of surfactin/BSA and metal-surfactin/BSA complexes.
Figure 4 Fluorescence emission spectra of bovine serum albumin (BSA) with different concentrations of Cu^2+-surfactin (a), Zn^2+-surfactin (b), Mg^2+-surfactin (c), Ca^2+-surfactin (d) and surfactin (e). Conditions: BSA: 15 µM; metal-lipopeptide (a–g): 0, 10, 20, 50, 70, 100 and 120 µM; pH = 7.4; T =25 °C.
Fluorescence quenching can occur through dynamic and static mechanisms. Both dynamic and static quenching require molecular contact between the fluorophore and the quencher. The Stern–Volmer quenching (KSV) values decrease with an increase in temperature for static quenching, but the reverse effect is observed for dynamic quenching. Quenching parameters were calculated from the Stern–Volmer equation [34]:(1) F0/F=1+KSV[Q]=1+kqτ0[Q] where F0 and F are the fluorescence intensities in the absence and presence of surfactin or metal-surfactin complexes, respectively; KSV is the Stern–Volmer quenching constant; [Q] is the concentration of surfactin or metal-surfactin complexes; kq is the biomolecular quenching rate constant; and τ0 is the lifetime of the fluorophore. The fluorescence lifetime of BSA is about 5 ns. The KSV values obtained from the plot of [Q] versus F0/F (shown in Figure 5) were in the range from 6.696 × 10^3 to 7.787 × 10^3 M^−1 corresponding to the surfactin and metal-surfactin complexes.
For the static quenching interaction, the binding constant (Kb) and the number of binding sites (n) can be determined by the following equation:(2) log[(F0−F)/F]=logKb+nlog[Q] where F0 and F are the fluorescence intensities in the absence and presence of surfactin or metal-surfactin complexes, respectively, and [Q] is the concentration of surfactin or metal-surfactin complexes. Binding constants obtained from the plot of log [Q] versus log [(F0−F)/F] (Figure 6) corresponding to surfactin and metal-surfactin complexes ranged from 0.746 × 10^4 to 1.315 × 10^4 M^−1. […] Regarding the binding constants (Kb), surfactin has values higher than all the tested metal-surfactin complexes. […] The above results are similar to those reported for metal-amphisin/BSA [27].
Thermodynamic parameters for a binding interaction can be used as major evidence for the nature of intermolecular forces. There are four types of interaction forces, which could play a role in ligand binding to proteins: Van der Waals forces, hydrophobic forces, electrostatic interactions and hydrogen bonds. Thermodynamic parameters relying on temperatures were analyzed to characterize the acting force between surfactin and metal-surfactin complexes with BSA. To obtain such information, the thermodynamic parameters were calculated from the Van’t Hoff relation:(3) lnK=−ΔH^0/RT+ΔS^0/R (4) ΔG^0=ΔH^0−TΔS^0=−RTlnK where K is the binding constant, R is the gas constant and T is the experimental temperature. ΔH denotes the enthalpy change and ΔS denotes the entropy change of the binding process. The ΔH and ΔS values were calculated from the slope and intercept of the Van’t Hoff plot (Figure S2), respectively. The negative sign for ΔG means that the interaction process is spontaneous. […] This observation is supported by the docking results.
The fluorescence quenching spectra were obtained with a Varian Cary eclipse fluorescence spectrophotometer. […]

[4] abbreviates: 25 °C, pH 7.4, from plot of log[(F0−F)/F] versus log[Q].
Where [5] appears, read: Van't Hoff plot over 25, 30, 37 °C.

Non-standard residues stand in square brackets, D forms with d. No end group written: not given here.

Sequence of bovine serum albumin (BSA) (P02769 25-607): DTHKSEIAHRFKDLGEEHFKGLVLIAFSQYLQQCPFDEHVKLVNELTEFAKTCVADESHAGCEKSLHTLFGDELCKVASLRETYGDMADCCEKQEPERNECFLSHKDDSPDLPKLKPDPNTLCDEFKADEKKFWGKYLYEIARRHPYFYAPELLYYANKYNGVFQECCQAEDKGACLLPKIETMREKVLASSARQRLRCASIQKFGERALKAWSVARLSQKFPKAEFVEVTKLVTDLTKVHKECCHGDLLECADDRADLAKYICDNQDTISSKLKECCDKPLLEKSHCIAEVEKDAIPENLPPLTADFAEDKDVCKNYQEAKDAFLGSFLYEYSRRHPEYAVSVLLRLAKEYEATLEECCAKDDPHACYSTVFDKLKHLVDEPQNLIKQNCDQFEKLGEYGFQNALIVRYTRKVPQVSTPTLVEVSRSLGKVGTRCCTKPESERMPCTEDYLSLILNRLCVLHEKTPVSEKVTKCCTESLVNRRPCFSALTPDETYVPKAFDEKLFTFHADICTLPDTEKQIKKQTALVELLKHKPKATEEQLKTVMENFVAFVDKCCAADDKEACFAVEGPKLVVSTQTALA

As to “EL[dL]VD[dL]L (also: lariat or depsi (positions not given here)) [Surfactin, surfactin-C15, cyclic lipopeptide biosurfactant from Bacillus subtilis #309; heptapeptide closed to a lactone ring by a C15 β-hydroxyl fatty acid]”, in data set [1] (surfactin-C15 0.003-0.12 mM), the “critical micelle concentration (CMC)” value was 0.045 mM. The “surface tension at the CMC (γcmc)” value in data set [1] amounted to 28.4 mN·m^−1. Also, in data set [2] (DLS, 173° backscatter, mean of 9 replicates ± SD), the “RH^(DLS), hydrodynamic radius of micelles” value is listed as 2.46 ± 0.03 nm. Besides, the “Vmic^(DLS), micelle volume” value in data set [2] (Vmic(DLS)=4/3·π·(RH(DLS))^3, from DLS radius) is listed as 62.36 nm^3. Moreover, in data set [3] (setting [4]), the “Kb, binding constant with BSA” value came to 13150 M⁻¹. Also, in data set [3] (setting [4]), the “n, number of binding sites on BSA” value was 1.07. Moreover, the “kq, biomolecular quenching rate constant” value in data set [3] (T 25 °C, pH 7.4) is 1.339e+12 M⁻¹ s⁻¹; in data set [3] (T 30 °C, pH 7.4), 9.852e+11 M⁻¹ s⁻¹; in data set [3] (T 37 °C, pH 7.4) it was 6.294e+11 M⁻¹ s⁻¹. In addition, the “KSV, Stern-Volmer quenching constant” value was determined as 6696 M⁻¹ in data set [3] (T 25 °C, pH 7.4, quencher 0-120 µM); 4926 M⁻¹ in data set [3] (T 30 °C, pH 7.4); 3147 M⁻¹ in data set [3] (T 37 °C, pH 7.4). Besides, the entries for the “ΔG of binding to BSA” value in data set [3] (T 25 °C), in data set [3] (T 30 °C) and in data set [3] (T 37 °C) were -21.84 kJ/mol, -21.39 kJ/mol and -20.77 kJ/mol, respectively. The “ΔH of binding to BSA” value in data set [3] (setting [5]) is -48.42 kJ/mol. Further, in data set [3] (setting [5]), the “ΔS of binding to BSA” value was −89.20 J·mol^−1·K^−1.
